The text below walks through data of patent US8487001B2, “Medium-chain length fatty acids, glycerides and analogues as neutrophil survival and activation factors” (ProMetic BioSciences Inc., priority 2001, dated 2013).

The subject of data set [1] is neutrophils (PMN). Kind of data set: Doxorubicin-induced neutrophil apoptosis, 4 hr incubation with or without MCT. Format: cell-based, human. On the procedure: PMN were isolated as described in example 10. Cells (2×10^6/ml) were incubated for 4 hr, at 37° C. in 5% CO2 and 95% humidity in the presence of various concentrations of a chemotherapeutic agent, doxorubicin. Apoptotic cells were evaluated as described in example 10. Data are expressed in percent of apoptotic cells.
PMN were isolated as described in example 10. Cells (2×10^6/ml) were incubated for 4 hr, at 37° C. in 5% CO2 and 95% humidity in the presence of various concentrations of doxorubicin with or without MCT (2.5% and 5.0%). Apoptotic cells were evaluated as described in example 10. Data are expressed in percent of apoptotic cells.
Results are expressed in percent of apoptotic cells after 4 hr of incubation in the presence or the absence of doxorubicin with or without MCT. […] However, in the presence of MCT, at a concentration of 2.5% and 5% (v/v), the apoptotic effects of doxorubicin are inhibited. Thus, MCT exerts an anti-apoptotic action on PMN. Apoptosis was also studied using the annexin V-FITC/PI (propidium iodide) to method according to the manufacturer's Biosources recommendations (Apotarget Annexin-VFITC Apoptosis Kit #PHN 1018). Annexin V binds to phosphatidylserine which is transferred from the internal to external membrane in early to late phase apoptosis. Briefly, neutrophils are incubated in the presence or absence of varying concentrations of doxorubicin and MCT. After 24 hr, neutrophils are washed with PBS and stained with […] of Annexin V-FITC and 10 μl of PI (Sigma, 1 mg/ml) for 20 minutes. After incubation, stained cells were fixed in paraformaldehyde (1%) and analyzed for apoptosis using an XL Flow Cytometer (Coulter). Data were then expressed as the percent of apoptotic cells. FIG. 4A represents a time-course response of MCT on doxorubicin-treated neutrophils.

Data set [2] is described as follows: Doxorubicin-induced neutrophil apoptosis, comparison to GM-CSF (% PMN viability). As to conditions: human. Format: cell-based, human. The source says:
(§1) Table 2 represents the effect of GM-CSF, MCT and tricaprylin on doxorubicin-induced human neutrophil apoptosis.

For data set [3], the system named is B16F10 melanoma. Kind of data set: Antitumor activity in B16F10 melanoma model. Format: in vivo, C57BL/6 mice. Particulars: FIG. 10; MCT 25 μMole/mouse i.v. day 7, 9, 14, 16; doxorubicin 10 mg/kg day 10 and 17 (sub-therapeutic); day 22. On the procedure:
Female 6-8-week old C57BL/6 mice were injected intravenously on day 0 with 1×10^5 B16F10 melanoma cells from ATCC (source of cell culture, Dr. I. J. Fidler). […] Mice were sacrificed on day 22. Body weight and tumor volume were recorded.

Data set [4] has as its system human neutrophils (PMN). Kind of data set: Doxorubicin-induced neutrophil apoptosis, comparison to GM-CSF (% PMN viability). Format: cell-based.
Excerpt: as §1

The test system of data set [5] is bone marrow cells. The experiment in a line: In vivo chemoprotection: bone marrow cell count. Particulars: immunosuppressed animals; comparison MCT versus GM-CSF. On the procedure:
(§2) To examine the immunoprotective effect of MCT or other compounds, mice were pre-treated orally at day-3, -2 and -1 or treated intravenously at day 0 with the test compound. Mice were sacrificed at day +5 by cardiac puncture and cervical dislocation. Then, cell suspensions were prepared from thymus, spleen and bone marrow as follow.
(§3) Tissues were crushed in PBS buffer and contaminating erythrocytes were lysed in ACK buffer (155 mM NH4Cl, 12 mM NaHCO3, 0.1 mM EDTA, pH 7.3) for 5 minutes. Cells were then collected by centrifugation and washed three times in PBS and resuspended in tissue culture medium. Cells were counted on a hemacytometer.
(§4) Chemoprotection studies were performed as described in example 16 except that mice were (post)-treated with MCT, sodium caprylate, sodium caprate or capric acid per o.s. on day 1, 2, 3 and 4.

Data set [6] concerns spleen cells. The experiment in a line: In vivo chemoprotection: spleen cell count. As to conditions: immunosuppressed animals; comparison MCT versus GM-CSF. On the procedure:
as §2, §3, §4

Data set [7] relates to thymus. The experiment in a line: In vivo: thymus weight, MCT versus GM-CSF. Particulars: normal mice; FIG. 8. On the procedure:
as §2
In vivo comparison on the induction of immune cell proliferation/regeneration or protection was undertaken following the protocol described in example 16. Comparative studies of MCT and GM-CSF were performed on normal and immunosuppressed animals.

With `COc1cccc2c1C(=O)c1c(O)c3c(c(O)c1C2=O)C[C@@](O)(C(=O)CO)C[C@@H]3O[C@H]1C[C@H](N)[C@H](O)[C@H](C)O1` [Doxorubicin, doxorubicin], the “% Apoptosis of neutrophils (PMN)” value in data set [1] (Experiment 1, doxorubicin 10^-4 M alone (Control, no MCT)) came to 27.5%; in data set [1] (Experiment 1, doxorubicin 10^-5 M alone (Control, no MCT)), 23.8%; in data set [1] (Experiment 1, doxorubicin 10^-6 M alone (Control, no MCT)), 23.2%; in data set [1] (Experiment 1, doxorubicin 10^-8 M alone (Control, no MCT)) it was 18.7%; in data set [1] (Experiment 1, doxorubicin 10^-10 M alone (Control, no MCT)), 9.3%; in data set [1] (Experiment 2, doxorubicin 10^-4 M alone (Control, no MCT)), 53.2%. The “% Apoptosis of neutrophils (PMN)” value was 66.2% in data set [1] (Experiment 2, doxorubicin 10^-5 M alone (Control, no MCT)); 55.0% in data set [1] (Experiment 2, doxorubicin 10^-6 M alone (Control, no MCT)); 59.2% in data set [1] (Experiment 2, doxorubicin 10^-8 M alone (Control, no MCT)); 60.6% in data set [1] (Experiment 2, doxorubicin 10^-10 M alone (Control, no MCT)). In data set [1] (various concentrations of doxorubicin, FIGS. 3A and 3B), the “effect on PMN apoptosis” value is given as “induces PMN apoptosis”. This compound displayed a viability in data set [2] of 6.82 ± 0.5%. In addition, in data set [3], the “reduction of the tumor volume” value was “around 25%”.
Regarding “GM-CSF: granulocyte-macrophage colony stimulating factor, hematopoietic growth factor”, the “% PMN Viability” value was 16.75 ± 2.05% in data set [4] (GM-CSF 10^-7 M + DOX (10^-5 M)) and 6.99 ± 0.23% in data set [4] (GM-CSF 10^-8 M + DOX (10^-5 M)). For the same compound, the “effect on doxorubicin-induced human neutrophil apoptosis” value in data set [4] (Table 2) is recorded as “able to rescue or protect human neutrophils against doxorubicin-induced apoptosis”. In data set [5], the “activity on bone marrow cell count” value is “has no significant activity on bone marrow and spleen cell counts”. In addition, the “activity on spleen cell count” value in data set [6] was “has no significant activity on bone marrow and spleen cell counts”. Besides, the “effect on thymus weight” value in data set [7] was “significant effect”.

In general, viability refers to a read-out of living cells in per cent, often relative to untreated cells.
